Where a name gives a salt, the structure may show the parent alone. Read-outs that look alike come from different tables or passages of the source.
Tests used:
[1] = test system: HUVECs; assay: Tube formation (tubulogenesis) assay in HUVECs, 18 h; assay type: cell-based, human; settings: Homo sapiens, HUVEC, 18 h, HUVECs; for activity at 0.1 µM: 0.10 µM; for minimal effective concentration: top concentration 100.00 µM
Method in brief: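 HUVECs (passage 1–5) seeded on reduced-growth-factor basement membrane and exposed to compounds overnight at 37°C, 5% CO2, in 2× maintenance medium with 12.5 ng/mL VEGF; 0.5% DMSO vehicle. Calcein AM-stained tube networks imaged and analysed; vehicle-normalized readouts fit to four-parameter logistic, POD set at one SD of vehicle means.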

[2] = test system: iCell endothelial cells (human iPSC-derived ECs); assay: High-content imaging cytotoxicity in iCell endothelial cells, 24 h; assay type: cell-based; settings: Homo sapiens, Endothelial cell, iPSC-EC, 24 hr; for viability at 0.1 µM / activity at 0.1 µM: 0.10 µM; for minimal effective concentration: top concentration 100.00 µM
Method in brief: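 Human iPSC-derived endothelial cells (passages 1–5) were grown to a fibronectin-coated monolayer, then exposed 24 h at 37 °C with 0.5% DMSO vehicle. Staining was Hoechst 33342, MitoTracker Orange and calcein AM, read by high-content imaging. Point of departure came from 4-parameter logistic fits, with a 1-SD vehicle cutoff and 100 µM as the top concentration.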

[3] = 0.00 µM = 100.00, read-out: huvec.mtl.18hr
[4] = 0.00 µM = 100.00, read-out: huvec.tlps.18hr
[5] = 0.00 µM = 100.00, read-out: huvec.tta.18hr
[6] = 0.00 µM = 100.00, read-out: huvec.ttl.18hr
[7] = 0.00 µM control = 100.00, read-out: endo.cyto.24hr
[8] = 0.00 µM control = 100.00, read-out: endo.mito.24hr
[9] = 0.00 µM control = 100.00, read-out: endo.mitoint.24hr
[10] = 0.00 µM control = 100.00, read-out: endo.nma.24hr
[11] = 0.00 µM control = 100.00, read-out: endo.tc.24hrs

Work on `O=S(=O)(O)Oc1cccc(-c2ccc(Cl)cc2)c1` [3'-yl PCB 3 sulfate] yielded an activity at 0.01 µM [1, 3] of 106%, an activity at 0.01 µM [1, 4] of 119% and an activity at 0.01 µM [1, 5] of 121%. The activity at 0.01 µM [1, 6] was 112%, the activity at 0.1 µM [1, 3] was 110% and the activity at 0.1 µM [1, 4] was 121%. For the same compound, the activity at 0.1 µM [1, 5] was 141%, the activity at 0.1 µM [1, 6] was 142% and the activity at 1 µM [1, 3] was 111%. The activity at 1 µM [1, 4] was 129%, the activity at 1 µM [1, 5] was 141% and the activity at 1 µM [1, 6] was 137%. It also gave an activity at 10 µM [1, 3] of 97.5%, an activity at 10 µM [1, 4] of 141% and an activity at 10 µM [1, 5] of 104%. It also gave an activity at 10 µM [1, 6] of 102%, an activity at 100 µM [1, 3] of 58% and an activity at 100 µM [1, 4] of 37.8%. It also gave an activity at 100 µM [1, 5] of 52.3%, an activity at 100 µM [1, 6] of 58.3% and a minimal effective concentration ([1]; read-out: huvec.mtl.18hr POD) of 15.5 µM. It also gave a minimal effective concentration ([1]; read-out: huvec.tlps.18hr POD) of 100 µM, a minimal effective concentration ([1]; read-out: huvec.tta.18hr POD) of 100 µM and a minimal effective concentration ([1]; read-out: huvec.ttl.18hr POD) of 100 µM. For the same compound, the viability at 0.01 µM [2, 7] was 101%, the activity at 0.01 µM [2, 8] was 101% and the activity at 0.01 µM [2, 9] was 106%. It also gave an activity at 0.01 µM [2, 10] of 99.3%, a viability at 0.01 µM [2, 11] of 101% and a viability at 0.1 µM [2, 7] of 93.7%. The activity at 0.1 µM [2, 8] was 93.7%, the activity at 0.1 µM [2, 9] was 105% and the activity at 0.1 µM [2, 10] was 103%. The viability at 0.1 µM [2, 11] was 93.7%, the viability at 1 µM [2, 7] was 97.2% and the activity at 1 µM [2, 8] was 97.2%. It also gave an activity at 1 µM [2, 9] of 105%, an activity at 1 µM [2, 10] of 102% and a viability at 1 µM [2, 11] of 97.2%. It also gave a viability at 10 µM [2, 7] of 98.7%, an activity at 10 µM [2, 8] of 98.8% and an activity at 10 µM [2, 9] of 111%. For the same compound, the activity at 10 µM [2, 10] was 99.5%, the viability at 10 µM [2, 11] was 98.7% and the viability at 100 µM [2, 7] was 98.5%. The activity at 100 µM [2, 8] was 98.5%, the activity at 100 µM [2, 9] was 103% and the activity at 100 µM [2, 10] was 97.4%. It also gave a viability at 100 µM [2, 11] of 98.5%, a minimal effective concentration ([2]; read-out: endo.cyto.24hr POD) of 100 µM and a minimal effective concentration ([2]; read-out: endo.mito.24hr POD) of 100 µM. The minimal effective concentration ([2]; read-out: endo.mitoint.24hr POD) was 100 µM, the minimal effective concentration ([2]; read-out: endo.nma.24hr POD) was 100 µM and the minimal effective concentration ([2]; read-out: endo.tc.24hrs POD) was 100 µM.
